Assay results taken from patent US20250144049A1, “METHODS, COMPOSITIONS, AND USES RELATED TO THE TREATMENT AND PREVENTION OF LEIGH SYNDROME” (Stealth BioTherapeutics Inc., priority 2023, published 2025).

Assays:
[1] = system: Leigh fibroblasts (GM03672); assay: Mitochondrial membrane potential (TMRM flow cytometry) in RSL3-treated Leigh fibroblasts; format: cell-based, human; conditions: 1 μM RSL3 with 1 μM compound, 4 hours
Protocol: Leigh fibroblasts (GM03672) were seeded in a 24-well, tissue culture-treated plate in complete MEM (MEM+15% FBS+1% penicillin/streptomycin) at a density of 1×10^5 cells per 500 μL and incubated overnight at 37° C. at 5% CO2. Cells were treated for 4 hours at 37° C. with either 1 μM RSL3, 1 μM RSL3 with 1 μM Compound 3 or media for untreated cells. Following the incubation, supernatant was removed and cells were treated with 0.25% trypsin for 5 min at 37° C. Trypsin was neutralized with an equal part MEM. Cells were dislodged with gentle pipetting and pelleted at 300×g for 5 minutes. Pellets were resuspended in 500 μL Fluobrite DMEM and cells were transferred to a 96-well, v-bottom plate. Cells were stained with 20 nM MitoTracker Green and 100 nM tetramethylrhodamine methyl ester (TMRM) Samples were incubated for 25 minutes at 37° C. Each well was mixed immediately prior to analysis to resuspend settled cells. Fluorescence intensity was measured on the BD Accuri C6 Plus Flow Cytometer. A minimum of 10,000 events per sample was collected. Data analysis was performed using FloJo vs. 10. Gating was performed by establishing an initial forward scatter vs. side scatter gate. […] Median fluorescence intensity (MFI) of TMRM fluorescence was determined. Using GraphPad Prism 10, statistical significance between groups was determined by One-way ANOVA. […]

[2] = Pharmacokinetics of Compound 3 and Compound 4 after five daily subcutaneous doses, plasma, heart, brain; format: in vivo, C57BL/6 mice; conditions: for tolerability: dose levels up to 60 mg/kg, SC injection, 5 daily doses
Protocol: • Animals: Male/C57Bl/6 mice/-18-25 grams were received from an approved vendor. • Fasting was not required for this study. • Body weights were recorded prior to dose administration. The volume of each dose delivered (mL/kg) was based on each individual animal's body weight. • This was a multiple dose terminal study dosed once per day over 5 days. Mice were taken down following their 5th and final dose. • Doses were administered in accordance with test facility standard operating procedures. […] Any abnormalities were recorded. • Pre-formulated Compound 3 and Compound 4 were provided by Study sponsor ready to be dosed for each day in accordance with the Study Design set forth in Table 1, below.
b) Sample collection—Post Dosing: • Terminal blood samples were collected via cardiac puncture following inhalation of anesthesia in accordance with test facility standard operating procedures. • Blood samples were collected into tubes with appropriate anticoagulant. The tubes were stored on wet ice until processed to plasma by centrifugation (3500 rpm at 5° C. for 10 minutes) within 20 minutes of collection. Sample aliquots of 100 μL were transferred into individual uniquely labeled matrix tubes and stored at nominal −80° C. until transferred to analytical chemistry for analysis by LC/MS/MS. • Immediately following each terminal blood collection for all groups, animals were sacrificed and perfused with cold PBS. The following tissues were collected: heart and brain in accordance with Table 2. • Plasma and tissue samples were processed for analysis by LC/MS/MS to determine the amounts/concentrations reported in the FIGS. 18-21.

[3] = system: Leigh syndrome (GM03672) fibroblasts; assay: RSL3 cytoprotection assay, Leigh fibroblasts; format: cell-based, human; conditions: RSL3, 4 hours, FIG. 9
Protocol: (§1) Patient fibroblasts were acquired from Coriell Institute for Medical Research (Camden, NJ, USA). GM03672 is an untransformed fibroblast cell line from a Leigh syndrome patient carrying an unknown mutation. GM08402 is an untransformed fibroblast from an apparently healthy individual. Cells were cultured at 37° C. at 5% CO2 in Eagle's Minimum Essential Medium (MEM, Corning), which was supplemented with Earle's salts and non-essential amino acids, 15% qualified fetal bovine serum, and 1% penicillin/streptomycin ([…]) to yield “Complete MEM.”
(§2) To initiate the RSL3 cytoprotection experiment, Healthy (GM08402) and Leigh syndrome (GM03672) fibroblasts were resuspended in Complete MEM. Cells were seeded at 10,000 cells per well in a clear, tissue cultured-treated, 96-well plate and incubated at 37° C. overnight. Following the incubation, supernatant was manually aspirated, taking care not to disrupt cells. […]. Luminescence units were quantified by GEN5 software on a BioTek SYNERGY neo2 plate reader (LUM filter).
(§3) RSL3 is an inhibitor of the enzyme glutathione peroxidase 4 (GPX4), which decreases lipid peroxides. RSL3 inhibition of GPX4 induces ferroptosis through iron-dependent accumulation of lipid ROS. In this assay, Healthy or Leigh fibroblasts were treated for 4 hours with RSL3 to induce ferroptosis or left untreated. Endogenous ATP levels were measured as an indicator of cellular viability using a commercially available kit (CellTiter-Glo® 2.0 Cell Viability Assay (Promega)).
(§4) […]. […] Briefly, ferroptosis was induced with 1 μM RSL3 in healthy fibroblast cells and 375 nM RSL3 in fibroblasts from a patient with Leigh syndrome.
(§5) A preliminary experiment was performed to determine the effect of RSL3 injury on the fibroblasts of a healthy individual (cell line: GM08402) and the fibroblasts of a patient diagnosed with Leigh syndrome (cell line: GM03672).

[4] = system: Healthy (GM08402) fibroblasts; assay: RSL3 cytoprotection assay, healthy fibroblasts; format: cell-based, human; conditions: 1 μM RSL3, 4 hours, FIG. 8
Protocol: as §1, §2, §3, §4, §5

[5] = Pharmacokinetics of Compound 3 after repeated (5 days) subcutaneous dosing; format: in vivo
Protocol: The volume of each dose delivered (mL/kg) was based on each individual animal's body weight. • This was a multiple dose terminal study dosed once per day over 5 days. Rats were taken down following their 5th and final dose. • Doses were administered in accordance with test facility standard operating procedures.
• Terminal blood samples were collected via cardiac puncture following inhalation anesthesia in accordance with test facility standard operating procedures. • Blood samples were collected into tubes with appropriate anticoagulant. Tubes were stored on wet ice until processed to plasma by centrifugation (3500 rpm at 5° C. for 10 minutes) within 20 minutes of collection. Sample aliquots of 100 μL were transferred into individual uniquely labeled matrix tubes and stored at nominal −80° C. until transferred to analytical chemistry for analysis. • Immediately following each terminal blood collection for all groups, animals were sacrificed and perfused with cold PBS. The following tissues were collected: heart and brain, in accordance with Table 4. • Plasma and tissue samples were processed for analysis by LC/MS/MS to determine the amounts/concentrations reported in the Figures.

Row | Compound | protection from loss of mitochondrial membrane potential (TMRM MFI) [1] | plasma exposure versus dose ([2]; mouse, 20 mg/kg and 60 mg/kg SC) | heart exposure based on AUC, Compound 3 versus Compound 4 ([2]; mouse, SC) | exposure (Cmax and AUC) heart versus brain ([2]; mouse, SC, after 5th dose) | tolerability ([2]; mouse) | concentration in heart tissue ([2]; mouse, up to 2 hours post administration after 5 days, Compound 3 20 and 60 mg/kg, Compound 4 60 mg/kg SC, FIG. 18) | concentration in brain tissue ([2]; mouse, up to 2 hours post administration after 5 days, Compound 3 20 and 60 mg/kg, Compound 4 60 mg/kg SC, FIG. 19) | anti-ferroptosis properties compared among test articles [3] | anti-ferroptosis properties compared among test articles [4] | uptake to plasma and clearance rate, mouse versus rat ([5]; 20 mg/kg SC mouse vs 10 mg/kg SC rat (60 mg/m^2), 30 minutes to 24 hours, FIG. 17) | tolerability ([5]; rat, 10 mg/kg SC, 5 daily doses) | brain exposure based on AUC, Compound 4 versus Compound 3 ([2]; male, C57BL/6, mouse, in vivo, sc) | Tmax, Compound 4 versus Compound 3 ([2]; mouse, in vivo, sc) | exposure (Cmax and AUC) heart versus brain ([2]; mouse, in vivo, sc) | half-life, Compound 4 versus Compound 3 ([2]; mouse, in vivo, sc)
1 | CC1=C(C)C(=O)C(CC[C@@](C)(O)COCCC[Si](C)(C)C)=C(C)C1=O [Compound 3] | protective | roughly proportional to dose | slightly higher | higher in heart than in brain | well tolerated | up to microgram quantities of drug per gram of heart tissue | up to microgram quantities of drug per gram of brain tissue | superior to Compounds 1, 4 and Vatiquinone | superior to Compounds 1, 4 and Vatiquinone | roughly equivalent | well tolerated | – | – | – | –
2 | CC1=C(C)C(=O)C(CC[C@](C)(O)CCCCCCCCC(F)(F)F)=C(C)C1=O [Compound 4] | protective | – | – | – | well tolerated | – | – | roughly equivalent | roughly equivalent | – | – | somewhat higher than Compound 3 | typically later | no difference | tended to be longer
